Experimental data from patent US10308652B2, “Tricyclic heterocyclic compounds useful as inhibitors of TNF” (BRISTOL-MYERS SQUIBB COMPANY, priority 2015, dated 2019).

Molecular target: TNFα (Homo sapiens (Human), UniProt P01375)
Assay: TNF induced HEK-Blue assay
Format: cell-based
Settings: TNFα 0.5 ng/ml; HEK-Blue-CD40L cells, NF-κB-driven secreted alkaline phosphatase reporter; 18 h
Description: TNF or CD40L-induced HEK-Blue Assay Test compounds serially diluted in DMSO were plated in an assay plate (Labcyte, Cat. #LP-0200) at final concentrations ranging from 0.004 μM to 25μM. TNFα (final concentration 0.5 ng/ml) or CD4OL (final concentration 30 ng/ml) in assay buffer [DMEM, 4.5 g/l glucose (Gibco, Cat. 21063-029), 10% FBS (Sigma, F4135), 1% Penicillin-Streptomycin (Gibco, Cat. 15140-122), 1% Anti-Anti (Gibco, Cat. 15240-112) and 2 mM L-glutamine (Gibco, Cat. 25030-081)] was then added to the assay plate. After a 30 minute pre-incubation at 37° C. and 5% CO2, HEK-Blue-CD40L cells (InvivoGen, Cat. Code hkb-cd40) containing a NF-κB-driven secreted alkaline phosphatase reporter gene were seeded into the assay plate at a density of 20,000 cells per well. This plate was then incubated for 18 h at 37° C. and 5% CO2. Secreted alkaline phosphatase expression was measured using QUANTI-Blue (InvivoGen, Cat. Code rep-qb1) according to manufacturer's specifications and the assay plate was read on a PerkinElmer Envision at 620 nm. Inhibition data for the test compound over a range of concentrations was plotted as percentage inhibition of the test compound (100%=maximum inhibition). IC50 values were determined after correcting for background [(sample read−mean of low control)/(mean of high control−mean of low control)] where by the low control is DMSO without stimulation and high control is DMSO with stimulation. The IC50 is defined as the concentration of test compound which produces 50% inhibition and was quantified using the 4 parameter logistic equation to fit the data.

Sequence of TNFα (P01375 77-233): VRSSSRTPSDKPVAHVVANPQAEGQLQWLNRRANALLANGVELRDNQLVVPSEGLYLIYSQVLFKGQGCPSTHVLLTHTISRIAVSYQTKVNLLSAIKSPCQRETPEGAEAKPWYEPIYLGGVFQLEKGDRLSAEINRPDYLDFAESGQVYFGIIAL

| SMILES | IC50 |
| --- | --- |
| CC(C)(O)c1ccc(-c2ccc3nc4c(n3n2)[C@H](c2cc(Cl)ccc2OC(F)F)NC[C@H]4O)cc1 (racemic) [Example 28, (+/−)-trans-9-(5-chloro-2-(difluoromethoxy)phenyl)-2-(4-(2-hydroxypropan-2-yl)phenyl)-6,7,8,9-tetrahydropyrido[4′,3′:4,5]imidazo[1,2-b]pyridazin-6-ol] | 1000 to 10000 nM |
| COc1ccccc1COc1ccc(-c2ccc3nc4c(n3n2)[C@@H](c2ccccc2OC(F)F)NC[C@H]4O)cc1 (racemic) [Example 37, (+/−)-cis-9-(2-(difluoromethoxy)phenyl)-2-(4-((2-methoxybenzyl)oxy)phenyl)-6,7,8,9-tetrahydropyrido[4′,3′:4,5]imidazo[1,2-b]pyridazin-6-ol] | 1000 to 10000 nM |
| O[C@@H]1CN[C@H](c2ccccc2OC(F)F)c2c1nc1ccc(-c3ccc(C4(O)CC4)cc3)nn21 (racemic) [Example 36, (+/−)-cis-9-(2-(difluoromethoxy)phenyl)-2-(4-(1-hydroxycyclopropyl)phenyl)-6,7,8,9-tetrahydropyrido [4′,3′:4,5]imidazo[1,2-b]pyridazin-6-ol] | 1000 to 10000 nM |
| CC(C)(O)c1ccc(-c2ccc3nc4c(n3n2)[C@@H](c2ccccc2OC(F)F)NC[C@H]4F)cc1 [Example 13, cis-(1R,4R)-2-(4-(9-(2-(difluoromethoxy)phenyl)-6-fluoro-6,7,8,9-tetrahydropyrido[4′,3′:4,5]imidazo[1,2-b]pyridazin-2-yl)phenyl)propan-2-ol] | < 1000 nM |
| CC(C)(O)c1ccc(-c2ccc3nc4c(n3n2)[C@@H](c2ccccc2OC(F)F)NC[C@@H]4O)cc1 [Example 15, trans-(6S,9R)-9-(2-(difluoromethoxy)phenyl)-2-(4-(2-hydroxypropan-2-yl)phenyl)-6,7,8,9-tetrahydropyrido [4′,3′:4,5]imidazo[1,2-b]pyridazin-6-ol] | 1000 to 10000 nM |
| CC(C)(O)c1ccc(-c2ccc3nc4c(n3n2)[C@H](c2ccccc2OC(F)F)OC[C@H]4O)cc1 (racemic) [Example 57, Rac-(6S,9S)-9-(2-(difluoromethoxy)phenyl)-2-(4-(2-hydroxypropan-2-yl)phenyl)-7,9-dihydro-6H-pyrano[4′,3′:4,5]imidazo[1,2-b]pyridazin-6-ol] | 1000 to 10000 nM |
| Cc1cc(F)ccc1[C@@H]1NC[C@@H](O)c2nc3ccc(-c4ccc(C(C)(C)O)cc4)nn3c21 (racemic) [Example 38, (+/−)-trans-9-(4-fluoro-2-methylphenyl)-2-(4-(2-hydroxypropan-2-yl)phenyl)-6,7,8,9-tetrahydropyrido[4′,3′:4,5]imidazo[1,2-b]pyridazin-6-ol] | 1000 to 10000 nM |
| COCCOc1ccc(-c2ccc3nc4c(n3n2)[C@@H](c2ccccc2OC(F)F)NC[C@H]4O)cc1 (racemic) [Example 34, (+/−)-cis-9-(2-(difluoromethoxy)phenyl)-2-(4-(2-methoxyethoxy)phenyl)-6,7,8,9-tetrahydropyrido[4′,3′:4,5]imidazo[1,2-b]pyridazin-6-ol] | 1000 to 10000 nM |
| CC(C)(O)c1ncc(-c2ccc3nc4c(n3n2)C(c2ccccc2OC(F)F)OCC4)cn1 (stereo not shown) [Example 63, 2-(5-(9-(2-(Difluoromethoxy)phenyl)-7,9-dihydro-6H-pyrano[4′,3′:4,5]imidazo[1,2-b]pyridazin-2-yl)pyrimidin-2-yl)propan-2-ol] | < 1000 nM |
| CCc1ccccc1[C@H]1NC[C@@H](O)c2nc3ccc(-c4ccc(C(C)(C)O)cc4)nn3c21 (racemic) [Example 25, (+/−)-cis-9-(2-ethylphenyl)-2-(4-(2-hydroxypropan-2-yl)phenyl)-6,7,8,9-tetrahydropyrido[4′,3′:4,5]imidazo[1,2-b]pyridazin-6-ol] | 1000 to 10000 nM |
| CC(C)(O)c1ccc(-c2ccc3nc4c(n3n2)[C@H](c2ccccc2OC(F)F)NC[C@H]4F)cc1 (racemic) [Example 9, (+/−)-trans-2-(4-(9-(2-(difluoromethoxy)phenyl)-6-fluoro-6,7,8,9-tetrahydropyrido[4′,3′:4,5]imidazo[1,2-b]pyridazin-2-yl)phenyl)propan-2-ol] | 1000 to 10000 nM |
| COc1ccc(-c2ccc3nc4c(n3n2)[C@@H](c2ccccc2OC(F)F)NC[C@H]4F)cn1 (racemic) [Example 11, (+/−)-cis-9-(2-(difluoromethoxy)phenyl)-6-fluoro-2-(6-methoxypyridin-3-yl)-6,7,8,9-tetrahydropyrido [4′,3′:4,5]imidazo[1,2-b]pyridazine] | 10000 to 25000 nM |
| COc1cc(F)ccc1[C@@H]1NC[C@@H](O)c2nc3ccc(-c4ccc(C(C)(C)O)cc4)nn3c21 (racemic) [Example 23, (+/−)-trans-9-(4-fluoro-2-methoxyphenyl)-2-(4-(2-hydroxypropan-2-yl)phenyl)-6,7,8,9-tetrahydropyrido[4′,3′:4,5]imidazo[1,2-b]pyridazin-6-ol] | 1000 to 10000 nM |
| COc1cc(-c2ccc3nc4c(n3n2)[C@@H](c2ccccc2OC(F)F)NC[C@H]4O)ccc1OCC(C)(C)O (racemic) [Example 30, (+/−)-cis-9-(2-(difluoromethoxy)phenyl)-2-(4-(2-hydroxy-2-methylpropoxy)-3-methoxyphenyl)-6,7,8,9-tetrahydropyrido[4′,3′:4,5]imidazo[1,2-b]pyridazin-6-ol] | 1000 to 10000 nM |
| COC1CN(C(=O)c2ccc(-c3ccc4nc5c(n4n3)C(c3ccccc3OC(F)F)NCC5O)cc2)C1 (stereo not shown) [Example 18, (4-(9-(2-(difluoromethoxy)phenyl)-6-hydroxy-6,7,8,9-tetrahydropyrido[4′,3′:4,5]imidazo[1,2-b]pyridazin-2-yl)phenyl)(3-methoxyazetidin-1-yl)methanone] | 10000 to 25000 nM |
| CC(C)(O)COc1ccc(-c2ccc3nc4c(n3n2)[C@@H](c2ccccc2OC(F)F)NC[C@H]4O)cc1 (racemic) [Example 29, (+/−)-cis-9-(2-(difluoromethoxy)phenyl)-2-(4-(2-hydroxy-2-methylpropoxy)phenyl)-6,7,8,9-tetrahydropyrido[4′,3′:4,5]imidazo[1,2-b]pyridazin-6-ol] | 1000 to 10000 nM |
| CC(C)(O)c1ccc(-c2ccc3nc4c(n3n2)C(c2ccccc2OC(F)F)OCC4)cc1 (stereo not shown) [Example 62, 2-(4-(9-(2-(Difluoromethoxy)phenyl)-7,9-dihydro-6H-pyrano[4′,3′:4,5]imidazo[1,2-b]pyridazin-2-yl)phenyl)propan-2-ol] | < 1000 nM |
| CS(=O)(=O)c1ccc(-c2ccc3nc4c(n3n2)[C@@H](c2ccccc2OC(F)F)NC[C@H]4O)cc1 (racemic) [Example 41, (+/−)-cis-9-(2-(difluoromethoxy)phenyl)-2-(4-(methylsulfonyl)phenyl)-6,7,8,9-tetrahydropyrido[4′,3′:4,5]imidazo[1,2-b]pyridazin-6-ol] | 1000 to 10000 nM |
| COc1ccc(-c2ccc3nc4c(n3n2)C(c2ccccc2OC(F)F)NCC4O)cn1 [Example 16, cis-(6R,9S)-9-(2-(difluoromethoxy)phenyl)-2-(6-methoxypyridin-3-yl)-6,7,8,9-tetrahydropyrido[4′,3′:4,5]imidazo[1,2-b]pyridazin-6-ol] | 1000 to 10000 nM |
| CC(C)(O)c1ccc(-c2ccc3nc4c(n3n2)[C@H](c2ccccc2OC(F)F)NC[C@@H]4O)cc1 [Example 7, Cis-(6S,9S)-9-(2-(difluoromethoxy)phenyl)-2-(4-(2-hydroxypropan-2-yl)phenyl)-6,7,8,9-tetrahydropyrido[4′,3′:4,5]imidazo[1,2-b]pyridazin-6-ol] | 1000 to 10000 nM |
| CC(C)(O)c1ccc(-c2ccc3nc4c(n3n2)[C@H](c2ccccc2OC(F)F)OC[C@@H]4O)cc1 (relative stereo) [Example 58, Cis-9-(2-(difluoromethoxy)phenyl)-2-(4-(2-hydroxypropan-2-yl)phenyl)-6,9-dihydro-7H-pyrano[4′,3′:4,5]imidazo[1,2-b]pyridazin-6-ol] | < 1000 nM |
| CC(C)(O)c1ccc(-c2ccc3nc4c(n3n2)C(c2ccccc2OC(F)F)NCC4F)cc1 [Example 12, cis-(1S,4S)-2-(4-(9-(2-(difluoromethoxy)phenyl)-6-fluoro-6,7,8,9-tetrahydropyrido[4′,3′:4,5]imidazo[1,2-b]pyridazin-2-yl)phenyl) propan-2-ol] | < 1000 nM |
| CC(C)(O)c1ncc(-c2ccc3nc4c(n3n2)C(c2ccccc2OC(F)F)NCC4O)cn1 (stereo not shown) [Example 17, 9-(2-(difluoromethoxy)phenyl)-2-(2-(2-hydroxypropan-2-yl)pyrimidin-5-yl)-6,7,8,9-tetrahydropyrido[4′,3′:4,5]imidazo[1,2-b]pyridazin-6-ol] | 1000 to 10000 nM |
| COc1ccc(-c2ccc3nc4c(n3n2)C(c2ccccc2OC(F)F)NCC4)cn1 (racemic) [Example 1, (+/−)-9-(2-(Difluoromethoxy)phenyl)-2-(6-methoxypyridin-3-yl)-6,7,8,9-tetrahydropyrido[4′,3′:4,5]imidazo[1,2-b]pyridazine] | < 1000 nM |
| CC(C)(O)c1ccc(-c2ccc3nc4c(n3n2)[C@@H](c2ccc(F)cc2C(F)(F)F)NC[C@H]4O)cc1 (racemic) [Example 39, (+/−)-cis-9-(4-fluoro-2-(trifluoromethyl)phenyl)-2-(4-(2-hydroxypropan-2-yl)phenyl)-6,7,8,9-tetrahydropyrido[4′,3′:4,5]imidazo[1,2-b]pyridazin-6-ol] | < 1000 nM |
